Data published in patent US7332501B2, “Indol-3-yl-carbonyl-spiro-piperidine derivatives as V1a receptor antagonists” (Hoffmann-La Roche Inc., priority 2005, dated 2008).

target: T1, human V1a receptor (Homo sapiens, UniProt P37288); assay: human V1a receptor binding (3H-Vasopressin SPA, HEK293 membranes); settings: displacement of 4 nM 3H-Vasopressin, membranes of HEK293 cells transiently transfected with human V1a receptor; Ki from IC50 by Cheng-Prussoff
T1 construct: expressed in transfected cells; host or cells: HEK293 cells, transiently transfected; cell membranes
Description: The human V1a receptor was cloned by RT-PCR from total human liver RNA. The coding sequence was subcloned in an expression vector after sequencing to confirm the identity of the amplified sequence. […] Cell membranes were prepared from HEK293 cells transiently transfected with the expression vector and grown in 20 liter fermenters with the following protocol.
50 g cells are resuspended in 30 ml freshly prepared ice cold Lysis buffer (50 mM HEPES, 1 mM EDTA, 10 mM MgCl2 adjusted to pH=7.4+complete cocktail of protease inhibitor (Roche Diagnostics)). The cells are homogenized with Polytron for 1 min and sonicated on ice for 2×2 minutes at 80% intensity (Vibracell sonicator). The preparation is centrifuged 20 min at 500 g at 4° C., the pellet is discarded and the supernatant centrifuged 1 hour at 43,000 g at 4° C. (19,000 rpm). The pellet is resuspended in 12.5 ml Lysis buffer+12.5 ml Sucrose 20% and homogenized using a Polytron for 1-2 min. The protein concentration is determined by the Bradford method and aliquots are stored at −80° C. until use. For binding studies 60 mg Yttrium silicate SPA beads (Amersham) are mixed with an aliquot of membrane in binding buffer (50 mM Tris, 120 mM NaCl, 5 mM KCl, 2 mM CaCl2, 10 mM MgCl2) for 15 minutes with mixing. 50 ul of bead/membrane mixture is then added to each well of a 96 well plate, followed by 50 ul of 4 nM 3H-Vasopressin (American Radiolabeled Chemicals). For total binding measurement 100 ul of binding buffer are added to the respective wells, for non-specific binding 100 ul of […] cold vasopressin and for compound testing 100 ul of a serial dilution of each compound in 2% DMSO. The plate is incubated 1 h at room temperature, centrifuged 1 min at 1000 g and counted on a Packard Top-Count. Non-specific binding counts are subtracted from each well and data is normalized to the maximum specific binding set at 100%. To calculate an IC 50 the curve is fitted using a non-linear regression model (XLfit), and the Ki is calculated using the Cheng-Prussoff equation.

T1 sequence (P37288 whole entry): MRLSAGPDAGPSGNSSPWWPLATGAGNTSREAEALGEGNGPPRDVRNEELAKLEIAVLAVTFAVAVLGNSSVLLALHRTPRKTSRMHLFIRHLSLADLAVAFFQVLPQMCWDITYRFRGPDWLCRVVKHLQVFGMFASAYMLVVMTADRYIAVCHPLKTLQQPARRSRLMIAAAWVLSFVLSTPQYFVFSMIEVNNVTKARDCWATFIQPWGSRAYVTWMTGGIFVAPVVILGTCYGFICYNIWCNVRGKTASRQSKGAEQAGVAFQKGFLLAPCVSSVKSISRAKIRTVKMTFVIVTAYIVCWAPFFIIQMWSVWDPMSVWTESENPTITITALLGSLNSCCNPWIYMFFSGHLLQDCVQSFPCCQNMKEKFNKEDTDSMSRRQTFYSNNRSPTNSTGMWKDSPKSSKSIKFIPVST

Question: With `O=C1OC2(CCN(C(=O)c3cn(CC(=O)N4CCCCC4)c4cc(Cl)ccc34)CC2)c2ccccc21` [Example 104, 1′-{[6-Chloro-1-(2-oxo-2-piperidin-1-ylethyl)-1H-indol-3-yl]carbonyl}-3H-spiro[2-benzofuran-1,4′-piperidin]-3-one] as the compound, how does the Ki read?
Answer: 1.3 nM

Question: With `O=C1OC2(CCN(C(=O)c3cn(CC(=O)N4CCOCC4)c4cc(Cl)ccc34)CC2)c2ccccc21` [Example 105, 1′-{[6-Chloro-1-(2-morpholin-4-yl-2-oxoethyl)-1H-indol-3-yl]carbonyl}-3H-spiro[2-benzofuran-1,4′-piperidin]-3-one] as the compound, how does the Ki read?
Answer: 2.3 nM

Question: `CN(C)C(=O)Cn1cc(C(=O)N2CCC3(CC2)OC(=O)c2ccccc23)c2ccc(Cl)cc21` [Example 106, 2-{6-Chloro-3-[(3-oxo-1′H,3H-spiro[2-benzofuran-1,4′-piperidin]-1′-yl)carbonyl]-1H-indol-1-yl}-N,N-dimethylacetamide] was tested. Which Ki did it give?
Answer: 0.4 nM

Question: For `CCN(CC)C(=O)Cn1cc(C(=O)N2CCC3(CC2)OC(=O)c2ccccc23)c2ccc(Cl)cc21` [Example 107, 2-{6-Chloro-3-[(3-oxo-1′H,3H-spiro[2-benzofuran-1,4′-piperidin]-1′-yl)carbonyl]-1H-indol-1-yl}-N,N-diethylacetamide], which Ki is on record?
Answer: 1.3 nM

Question: With `O=C1OC2(CCN(C(=O)c3cn(C(=O)N4CCCCC4)c4cc(Cl)ccc34)CC2)c2ccccc21` [Example 108, 1′-{[6-Chloro-1-(piperidin-1-ylcarbonyl)-1H-indol-3-yl]carbonyl}-3H-spiro[2-benzofuran-1,4′-piperidin]-3-one] as the compound, how does the Ki read?
Answer: 6.2 nM

Question: Which Ki does the source give for `CC(C)(C)OC(=O)Cn1cc(C(=O)N2CCC3(CC2)OC(=O)c2ccccc23)c2ccc(Cl)cc21` [Example 109, tert-Butyl {6-chloro-3-[(3-oxo-1′H,3H-spiro[2-benzofuran-1,4′-piperidin]-1′-yl)carbonyl]-1H-indol-1-yl}acetate] here?
Answer: 1.1 nM

Question: With `CN(C)C(=O)Cn1cc(C(=O)N2CCC3(CC2)OC(=O)c2cc(F)ccc23)c2ccc(Cl)cc21` [Example 110, 2-{6-Chloro-3-[(5-fluoro-3-oxo-1′H,3H-spiro[2-benzofuran-1,4′-piperidin]-1′-yl)carbonyl]-1H-indol-1-yl}-N,N-dimethylacetamide] as the compound, how does the Ki read?
Answer: 0.8 nM

Question: How did the Ki turn out when `CN(C)CCn1cc(C(=O)N2CCC3(CC2)OC(=O)c2cc(F)ccc23)c2ccc(Cl)cc21` [Example 111, 1′-({6-Chloro-1-[2-(dimethylamino)ethyl]-1H-indol-3-yl}carbonyl)-5-fluoro-3H-spiro[2-benzofuran-1,4′-piperidin]-3-one] was run?
Answer: 2.4 nM

Question: How did the Ki turn out when `CC(C)(C)OC(=O)Cn1cc(C(=O)N2CCC3(CC2)OC(=O)c2cc(F)ccc23)c2ccc(Cl)cc21` [Example 112, tert-Butyl {6-chloro-3-[(5-fluoro-3-oxo-1′H,3H-spiro[2-benzofuran-1,4′-piperidin]-1′-yl)carbonyl]-1H-indol-1-yl}acetate] was run?
Answer: 2 nM

Question: For `O=C1OC2(CCN(C(=O)c3cn(CC(=O)N4CCOCC4)c4cc(Cl)ccc34)CC2)c2ccc(F)cc21` [Example 113, 1′-{[6-Chloro-1-(2-morpholin-4-yl-2-oxoethyl)-1H-indol-3-yl]carbonyl}-5-fluoro-3H-spiro[2-benzofuran-1,4′-piperidin]-3-one], which Ki is on record?
Answer: 1.1 nM

Question: How did the Ki turn out when `CN1CCN(C(=O)Cn2cc(C(=O)N3CCC4(CC3)OC(=O)c3cc(F)ccc34)c3ccc(Cl)cc32)CC1` [Example 114, 1′-({6-Chloro-1-[2-(4-methylpiperazin-1-yl)-2-oxoethyl]-1H-indol-3-yl}carbonyl)-5-fluoro-3H-spiro[2-benzofuran-1,4′-piperidin]-3-one] was run?
Answer: 1.3 nM

Question: `NC(=O)Cn1cc(C(=O)N2CCC3(CC2)OC(=O)c2cc(F)ccc23)c2ccc(Cl)cc21` [Example 115, 2-{6-Chloro-3-[(5-fluoro-3-oxo-1′H,3H-spiro[2-benzofuran-1,4′-piperidin]-1′-yl)carbonyl]-1H-indol-1-yl}acetamide] was tested. Which Ki did it give?
Answer: 10.4 nM

Question: `CNC(=O)Cn1cc(C(=O)N2CCC3(CC2)OC(=O)c2cc(F)ccc23)c2ccc(Cl)cc21` [Example 116, 2-{6-Chloro-3-[(5-fluoro-3-oxo-1′H,3H-spiro[2-benzofuran-1,4′-piperidin]-1′-yl)carbonyl]-1H-indol-1-yl}-N-methylacetamide] was tested. Which Ki did it give?
Answer: 1.7 nM

Question: For `O=C1OC2(CCN(C(=O)c3cn(CC(=O)N4CCNCC4)c4cc(Cl)ccc34)CC2)c2ccc(F)cc21` [Example 117, 1′-{[6-Chloro-1-(2-oxo-2-piperazin-1-ylethyl)-1H-indol-3-yl]carbonyl}-5-fluoro-3H-spiro[2-benzofuran-1,4′-piperidin]-3-one], which Ki is on record?
Answer: 1.2 nM

Question: With `CN(C)CCNC(=O)Cn1cc(C(=O)N2CCC3(CC2)OC(=O)c2ccccc23)c2ccc(Cl)cc21` [Example 119, 2-{6-Chloro-3-[(3-oxo-1′H,3H-spiro[2-benzofuran-1,4′-piperidin]-1′-yl)carbonyl]-1H-indol-1-yl}-N-[2-(dimethylamino)ethyl]acetamide] as the compound, how does the Ki read?
Answer: 24 nM

Question: How did the Ki turn out when `Cc1cc2c(C(=O)N3CCC4(CC3)OC(=O)c3ccccc34)cn(CC(=O)N(C)C)c2cc1Cl` [Example 120, 2-{6-Chloro-5-methyl-3-[(3-oxo-1′H,3H-spiro[2-benzofuran-1,4′-piperidin]-1′-yl)carbonyl]-1H-indol-1-yl}-N,N-dimethylacetamide] was run?
Answer: 2.7 nM

Question: For `Cc1c(C(=O)N2CCC3(CC2)OC(=O)c2ccc(OCCO)cc23)c2ccccc2n1Cc1ccccc1` [Example 122, 1′-[(1-benzyl-2-methyl-1H-indol-3-yl)carbonyl]-6-(2-hydroxyethoxy)-3H-spiro[2-benzofuran-1,4′-piperidin]-3-one], which Ki is on record?
Answer: 5.2 nM

Question: For `Cc1c(C(=O)N2CCC3(CC2)OC(=O)c2ccccc23)c2ccccc2n1Cc1ccccc1` [Example 126, 1′-[(1-Benzyl-2-methyl-1H-indol-3-yl)carbonyl]-3H-spiro[2-benzofuran-1,4′-piperidin]-3-one], which Ki is on record?
Answer: 3 nM

Question: Which Ki does the source give for `O=C1OC2(CCN(C(=O)c3cn(-c4cc(F)cc(F)c4)c4cc(Cl)ccc34)CC2)c2ccccc21` [Example 127, 1′-{[6-Chloro-1-(3,5-difluorophenyl)-1H-indol-3-yl]carbonyl}-3H-spiro[2-benzofuran-1,4′-piperidin]-3-one] here?
Answer: 3 nM

Question: With `O=C1OC2(CCN(C(=O)c3cn(C(=O)c4cc(F)cc(F)c4)c4cc(Cl)ccc34)CC2)c2ccccc21` [Example 130, 1′-{[6-Chloro-1-(3,5-difluorobenzoyl)-1H-indol-3-yl]carbonyl}-3H-spiro[2-benzofuran-1,4′-piperidin]-3-one] as the compound, how does the Ki read?
Answer: 11.1 nM

Question: `O=C1OC2(CCN(C(=O)c3cn(Cc4cc(F)cc(F)c4)c4cc(Cl)ccc34)CC2)c2ccccc21` [Example 133, 1′-{[6-Chloro-1-(3,5-difluorobenzyl)-1H-indol-3-yl]carbonyl}-3H-spiro[2-benzofuran-1,4′-piperidin]-3-one] was tested. Which Ki did it give?
Answer: 0.9 nM

Question: With `O=C1OC2(CCN(C(=O)c3cn(Cc4cccc(F)c4)c4cc(Cl)ccc34)CC2)c2ccccc21` [Example 134, 1′-{[6-Chloro-1-(3-fluorobenzyl)-1H-indol-3-yl]carbonyl}-3H-spiro[2-benzofuran-1,4′-piperidin]-3-one] as the compound, how does the Ki read?
Answer: 1 nM

Question: With `O=C(Cn1cc(C(=O)N2CCC3(CC2)OC(=O)c2ccccc23)c2ccc(Cl)cc21)c1cccc(F)c1` [Example 135, 1′-({6-Chloro-1-[2-(3-fluorophenyl)-2-oxoethyl]-1H-indol-3-yl}carbonyl)-3H-spiro[2-benzofuran-1,4′-piperidin]-3-one] as the compound, how does the Ki read?
Answer: 1.8 nM

Question: With `O=C(Cn1cc(C(=O)N2CCC3(CC2)OC(=O)c2ccccc23)c2ccc(Cl)cc21)c1cc(F)ccc1F` [Example 136, 1′-({6-Chloro-1-[2-(2,5-difluorophenyl)-2-oxoethyl]-1H-indol-3-yl]carbonyl)-3H-spiro[2-benzofuran-1,4′-piperidin]-3-one] as the compound, how does the Ki read?
Answer: 3 nM

Question: `O=C1OC2(CCN(C(=O)c3cn(Cc4cc(F)cc(F)c4)c4cc(Cl)ccc34)CC2)c2ccc(F)cc21` [Example 142, 1′-{[6-Chloro-1-(3,5-difluorobenzyl)-1H-indol-3-yl]carbonyl}-5-fluoro-3H-spiro[2-benzofuran-1,4′-piperidin]-3-one] was tested. Which Ki did it give?
Answer: 0.6 nM

Question: Which Ki does the source give for `O=C1OC2(CCN(C(=O)c3cn(Cc4cccc(F)c4)c4cc(Cl)ccc34)CC2)c2ccc(F)cc21` [Example 143, 1′-{[6-Chloro-1-(3-fluorobenzyl)-1H-indol-3-yl]carbonyl}-5-fluoro-3H-spiro[2-benzofuran-1,4′-piperidin]-3-one] here?
Answer: 1 nM

Question: With `O=C(Cn1cc(C(=O)N2CCC3(CC2)OC(=O)c2cc(F)ccc23)c2ccc(Cl)cc21)c1cccc(F)c1` [Example 144, 1′-({6-Chloro-1-[2-(3-fluorophenyl)-2-oxoethyl]-1H-indol-3-yl}carbonyl)-5-fluoro-3H-spiro[2-benzofuran-1,4′-piperidin]-3-one] as the compound, how does the Ki read?
Answer: 2 nM
